Read-outs that look alike come from different tables or passages of the source.
How the values were obtained:
Format in all cases: in vivo
[1] = tested on: pigweed (Amaranthus retroflexus); assay: Test A preemergence; conditions: Amaranthus retroflexus, pre-emergence, 240 h; for pest or weed control at 125 g/ha: 125 g ai/ha; for pest or weed control at 500 g/ha: 500 g ai/ha; for pest or weed control at 31 g/ha: 31 g ai/ha, 0 to 100 scale (0 no effect, 100 complete control)
[2] = tested on: sedge, umbrella (small-flower umbrella sedge, Cyperus difformis); assay: Test B flooded paddy test; conditions: Cyperus difformis, Flood, 250 g ai/ha, read-out: Sedge, Umbrella plant response rating
Outline: (§1)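 Flooding to 3 cm over soil accompanied treatment, which consisted of adding compound to the standing water around 2-leaf plants; depth was then maintained. Visual assessment versus controls followed at 13 to 15 d (scale 0–100, 0 meaning no effect).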

[3] = tested on: ducksalad (Heteranthera limosa); assay: Test B flooded paddy test; conditions: Heteranthera limosa, Flood, 250 g ai/ha, read-out: Ducksalad plant response rating
Outline: as §1

rice (Oryra sativa) = assay: Test B flooded paddy test; conditions: Oryza sativa, Flood, 250 g ai/ha, read-out: Rice plant response rating
Outline: as §1

[4] = tested on: barnyardgrass (Echinochloa crus-galli); assay: Test B flooded paddy test; conditions: Echinochloa crus-galli, Flood, 250 g ai/ha, read-out: Barnyardgrass plant response rating
Outline: as §1

[5] = preemergence, visual rating after approx. 10 d, 0 to 100 scale where 0 is no effect and 100 is complete control, read-out: Plant response rating, Pigweed
[6] = Preemergence, visual injury vs untreated controls after approximately 10 d, read-out: Pigweed plant response rating (0 to 100 scale where 0 is no effect and 100 is complete control)
[7] = scale of 0 to 100 where 0 is no effect and 100 is complete control
[8] = Preemergence, read-out: Plant response rating, Pigweed
[9] = preemergence, visual injury rating, 0 to 100 scale where 0 is no effect and 100 is complete control, approximately 10 d, read-out: Pigweed plant response rating
[10] = preemergence, 0 to 100 scale where 0 is no effect and 100 is complete control, read-out: Pigweed plant response rating
[11] = 0 to 100 scale where 0 is no effect and 100 is complete control

| SMILES | pest or weed control at 125 g/ha [1, 5] [%] | pest or weed control at 500 g/ha [1, 6] [%] | pest or weed control at 250 g/ha [2, 7] [%] | pest or weed control at 250 g/ha [3, 7] [%] | pest or weed control at 250 g/ha (rice (Oryra sativa); [7]) [%] | pest or weed control at 250 g/ha [4, 7] [%] | pest or weed control at 31 g/ha [1, 8] [%] | pest or weed control at 125 g/ha [1, 9] [%] | pest or weed control at 500 g/ha [1, 10] [%] | pest or weed control at 250 g/ha [2, 11] [%] | pest or weed control at 250 g/ha [3, 11] [%] | pest or weed control at 250 g/ha (rice (Oryra sativa); [11]) [%] | pest or weed control at 250 g/ha [4, 11] [%] |
| --- | --- | --- | --- | --- | --- | --- | --- | --- | --- | --- | --- | --- | --- |
| CN1C[C@H](c2cc(F)cc(F)c2)[C@@H](C(=O)Nc2ncccc2F)C1=O [Compound 783] | 0 | 0 | 0 | 0 | 0 | 0 |  |  |  |  |  |  |  |
| CS(=O)(=O)c1ccccc1NC(=O)[C@H]1C(=O)NC[C@@H]1c1ccc(OC(F)F)cc1 [Compound 787] | 50 | 80 | 0 | 50 | 0 | 0 |  |  |  |  |  |  |  |
| Cc1cc([C@H]2CNC(=O)[C@@H]2C(=O)Nc2ccccc2F)ccc1Cl [Compound 789] | 0 | 20 | 0 | 100 | 0 | 20 |  |  |  |  |  |  |  |
| Cc1cc([C@H]2CNC(=O)[C@@H]2C(=O)Nc2cccc(F)c2F)ccc1Cl [Compound 790] | 0 | 40 | 0 | 100 | 0 | 40 |  |  |  |  |  |  |  |
| CN1CC[C@@H](c2cccc(C(F)(F)F)c2)[C@H](C(=O)Nc2ccccc2F)C1=O [Compound 794] | 0 |  | 0 | 30 | 20 | 40 | 0 |  |  |  |  |  |  |
| CSc1ccccc1NC(=O)[C@H]1C(=O)N(C)C[C@@H]1c1cc(C)c(C)c(C)c1 [Compound 798] | 40 |  | 0 | 50 | 40 | 75 | 30 |  |  |  |  |  |  |
| CSc1ccccc1NC(=O)[C@H]1C(=O)N(C)C[C@@H]1c1ccc(C(F)F)cc1 [Compound 799] | 40 |  | 0 | 80 | 30 | 65 | 30 |  |  |  |  |  |  |
| Cc1cc(F)cc([C@H]2CN(C)C(=O)[C@@H]2C(=O)Nc2ccc(F)c(F)c2F)c1 [Compound 801] | 30 |  | 40 | 90 | 30 | 90 | 30 |  |  |  |  |  |  |
| CN1C[C@H](c2ccc(C(F)F)cc2)[C@@H](C(=O)Nc2ccccc2F)C1=O [Compound 803] | 60 |  | 0 | 100 | 55 | 90 | 40 |  |  |  |  |  |  |
| CN1CC[C@H](c2cccc(OC(F)(F)F)c2)[C@@H](C(=O)Nc2cccc(F)c2F)C1=O [Compound 807] | 40 |  | 0 | 100 | 0 | 95 | 0 |  |  |  |  |  |  |
| CN1CC[C@H](c2cccc(OC(F)(F)F)c2)[C@@H](C(=O)Nc2cccc(Cl)c2F)C1=O [Compound 810] | 0 |  | 0 | 90 | 0 | 60 | 0 |  |  |  |  |  |  |
| N#Cc1cc([C@H]2CNC(=O)[C@]2(O)C(=O)Nc2ccccc2F)ccc1F [Compound 1200] |  |  |  |  |  |  |  | 0 | 0 | 0 | 0 | 0 | 0 |
| CSc1ccccc1NC(=O)[C@H]1C(=O)NC[C@@H]1c1ccc(F)c(C#N)c1 [Compound 1201] |  |  |  |  |  |  |  | 20 | 70 | 0 | 50 | 0 | 0 |
| CN1C[C@H](c2ccc3c(c2)OC(F)(F)O3)[C@@H](C(=O)Nc2ccc(F)c(F)c2F)C1=O [Compound 1204] |  |  |  |  |  |  |  | 70 | 100 | 0 | 100 | 0 | 70 |
| COc1cc(C(F)(F)F)ccc1[C@H]1CN(C)C(=O)[C@@H]1C(=O)Nc1cccc(F)c1C [Compound 1205] |  |  |  |  |  |  |  | 0 | 30 | 0 | 100 | 20 | 40 |
| Cc1c(F)cccc1NC(=O)[C@H]1C(=O)N(C)C[C@@H]1c1ccc(F)c(Br)c1 [Compound 1211] |  |  |  |  |  |  |  | 50 | 70 | 0 | 100 | 60 | 85 |
| Cc1c(F)cccc1NC(=O)[C@H]1C(=O)N(C)C[C@@H]1c1ccc(OC(F)F)cc1 [Compound 1213] |  |  |  |  |  |  |  | 50 | 80 | 0 | 100 | 20 | 70 |
| CN1C[C@H](c2cc(F)cc(C(F)(F)F)c2)[C@@H](C(=O)Nc2cccc(F)c2F)C1=O [Compound 1214] |  |  |  |  |  |  |  | 60 | 70 | 60 | 100 | 15 | 70 |
| COc1ccc([C@H]2CN(C)C(=O)[C@@H]2C(=O)Nc2ccccc2F)c(OC)c1 [Compound 1215] |  |  |  |  |  |  |  | 0 | 0 | 0 | 70 | 0 | 0 |
| COc1cc([C@H]2CN(C)C(=O)[C@@H]2C(=O)Nc2ccccc2F)cc(OC)c1OC [Compound 1217] |  |  |  |  |  |  |  | 0 | 0 | 0 | 40 | 25 | 0 |
| Cc1ccc([C@H]2CCN(C)C(=O)[C@@H]2C(=O)Nc2cccc(F)c2F)cc1 [Compound 1220] |  |  |  |  |  |  |  | 20 | 40 | 0 | 95 | 10 | 70 |
| CN1CC[C@H](c2ccc(C(F)(F)F)cc2)[C@@H](C(=O)Nc2cccc(F)c2F)C1=O [Compound 1225] |  |  |  |  |  |  |  | 30 | 50 | 0 | 100 | 20 | 80 |
| CSc1ccccc1NC(=O)[C@H]1C(=O)N(C)C[C@@H]1c1cccc(C)c1 [Compound 1232] |  |  |  |  |  |  |  | 70 | 90 | 0 | 95 | 0 | 55 |
| CN1C[C@H](c2ccc(F)c(Br)c2)[C@@H](C(=O)Nc2cccc(F)c2F)C1=O [Compound 1234] |  |  |  |  |  |  |  | 70 | 90 | 0 | 100 | 75 | 90 |
| O=C1NC[C@H](c2ccc(C(F)(F)F)cc2)C1C(=O)Nc1ccccc1CO (stereo partly drawn) [Compound 1242] |  |  |  |  |  |  |  | 0 | 0 | 0 | 75 | 0 | 0 |

Reference: patent publication US12077503B2, “Substituted cyclic amides and their use as herbicides” (FMC CORPORATION, priority 2015, dated 2024)
